Measured values: patent US8653134B2, “Hydroxyphenol derivatives, processes for the preparation thereof, pharmaceutical compositions them, and therapeutic uses thereof” (Merck Patent GmbH, priority 2005, dated 2014)

Experiments:
[1] = target: T1, chimeric protein PPARγ-Gal4 (Homo sapiens, UniProt P37231); test: PPARγ-Gal4 transactivation test (luciferase reporter) in cotransfected CV-1 cells; assay type: cell-based
T1 construct: expressed in transfected cells; host or cells: CV-1 cells (monkey kidney cells)
T1 sequence (P37231 238-503 limits assumed): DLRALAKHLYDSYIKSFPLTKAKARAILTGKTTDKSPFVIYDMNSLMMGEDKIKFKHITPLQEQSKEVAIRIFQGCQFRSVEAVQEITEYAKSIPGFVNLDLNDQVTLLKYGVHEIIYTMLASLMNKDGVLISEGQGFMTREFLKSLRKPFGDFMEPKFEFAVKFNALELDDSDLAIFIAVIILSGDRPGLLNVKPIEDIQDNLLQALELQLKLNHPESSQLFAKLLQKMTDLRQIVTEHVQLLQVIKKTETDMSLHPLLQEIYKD
Method: The measurement of the PPAR activation was performed according to a technique described by Lehmann et al. (J. Biol. Chem., 270, (1995), 12953-12956). CV-1 cells (monkey kidney cells) are cotransfected with an expression vector for the chimeric protein PPARγ-Gal4 and with a “reporter” plasmid that allows expression of the luciferase gene placed under the control of a promoter comprising Gal4 response elements. The cells are seeded in 96-well microplates and cotransfected using a commercial reagent with the reporter plasmid (pG5-tk-pGL3) and the expression vector for the chimeric protein (PPARγ-Gal4). After incubation for 4 hours, whole culture medium (comprising 10% foetal calf serum) is added to the wells. After 24 hours, the medium is removed and replaced with whole medium comprising the test products. The products are left in contact with the cells for 18 hours. The cells are then lysed and the luciferase activity is measured using a luminometer. A PPARγ activation factor can then be calculated by means of the activation of the expression of the reporter gene induced by the product (relative to the control cells that have received no product). In the absence of the PPARγ ligand binding domain (vector expressing Gal4 alone), the luciferase activity measured in the presence of an agonist is zero. The transactivation test using the expression of a chimeric protein Gal-4-PPARγ makes it possible to determine also whether an agonist functions as a “full” agonist or as a “partial” agonist in this system. An agonist is “partial” in this system if it induces a weaker response, i.e. it has lower efficacy, than rosiglitazone, which is a “full” agonist. In concrete terms, in our system, the transactivation obtained at the plateau with a partial agonist will be between 20% and 50% of the maximum response (efficacy) at the plateau of rosiglitazone.

CCCCCOc1cc2c(cc1OCc1cccc(C(=O)O)c1)C(=O)CC2 [Example 4, 3-(3-Oxo-6-pentyloxyindan-5-yloxymethyl)benzoic Acid]
Concentration to reach the maximum stimulation of the PPARγ chimeric protein ([1]; CV-1 cells, Gal-4-PPARγ transactivation): 12.5 µM | Emax ([1]; transactivation at the plateau as % of the maximum response (efficacy) of rosiglitazone, CV-1 cells, read-out: Maximum stimulation of the PPARγ chimeric protein obtained with rosiglitazone): 28% | melting point: 190 °C

CCCCCCOc1cc2c(cc1OCCCC(=O)O)C(=O)CC2 [Example 7, 4-(6-hexyloxy-3-oxoindan-5-yloxy)butanoic acid]
Activation factor of the chimeric protein PPARγ-Gal4 ([1]; concentration 10 μM, CV-1 cells (monkey kidney cells), 18 hours contact, relative to control cells without agonist (=1)): 9.10
